For seven molecules, Ki and Km results are on record in ChEMBL document CHEMBL1137921, “Substrate analogs for the investigation of deoxyxylulose 5-phosphate reductoisomerase inhibition: synthesis and evaluation” (Bioorg Med Chem Lett, 2004).

In data set [1] the target is T1, 1-deoxy-D-xylulose 5-phosphate reductoisomerase (Synechocystis sp. (strain PCC 6803 / Kazusa), UniProt Q55663).
T1 sequence (Q55663 whole entry): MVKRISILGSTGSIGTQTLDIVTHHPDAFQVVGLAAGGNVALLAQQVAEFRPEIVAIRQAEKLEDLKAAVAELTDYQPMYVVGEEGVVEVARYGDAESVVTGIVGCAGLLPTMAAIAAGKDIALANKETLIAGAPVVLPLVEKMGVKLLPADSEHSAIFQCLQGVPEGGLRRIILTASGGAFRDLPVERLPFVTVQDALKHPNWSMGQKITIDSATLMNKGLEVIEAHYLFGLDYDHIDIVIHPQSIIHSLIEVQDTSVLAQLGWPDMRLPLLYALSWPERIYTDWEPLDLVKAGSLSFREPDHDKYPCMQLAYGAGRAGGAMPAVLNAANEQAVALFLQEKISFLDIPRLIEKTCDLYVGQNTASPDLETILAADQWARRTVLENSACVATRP
Nature of the data set: Binding affinity against Synechocystis strain PCC6803 DXP reductoisomerase. The arrangement: species or system Synechocystis sp. PCC 6803.

In data set [2] the target is T2, 1-deoxy-D-xylulose 5-phosphate reductoisomerase (Escherichia coli K-12, UniProt P45568).
T2 sequence (P45568 whole entry): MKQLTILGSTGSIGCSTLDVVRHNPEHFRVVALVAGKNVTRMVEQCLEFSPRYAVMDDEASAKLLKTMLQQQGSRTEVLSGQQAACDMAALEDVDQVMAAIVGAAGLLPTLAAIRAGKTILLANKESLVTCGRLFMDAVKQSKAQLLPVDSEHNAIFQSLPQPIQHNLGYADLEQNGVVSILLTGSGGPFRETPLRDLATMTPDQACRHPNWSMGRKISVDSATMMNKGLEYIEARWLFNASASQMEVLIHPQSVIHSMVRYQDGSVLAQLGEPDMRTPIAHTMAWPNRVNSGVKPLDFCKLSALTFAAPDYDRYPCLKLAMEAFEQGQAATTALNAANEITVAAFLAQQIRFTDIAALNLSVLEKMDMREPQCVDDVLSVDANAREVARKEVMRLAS
Nature of the data set: Inhibitory activity against Escherichia coli deoxyxylulose 5-phosphate reductoisomerase.

Substrate in data set [3]: CC(=O)[C@@H](O)[C@H](O)CCP(=O)(O)O
Nature of the data set: Michaelis-Menten constant for Synechocystis strain PCC6803 DXP reductoisomerase. The settings on record: Synechocystis sp. PCC 6803.

By Ki is commonly meant a measure of affinity in units of concentration, obtained from inhibition or displacement. In data set [1], `O=CN(O)CCCP(=O)(O)O` [FOSMIDOMYCIN] had a Ki of 0.021 µM.

In the case of `CC(=O)C[C@H](O)COP(=O)(O)O`, the inhibition constant Ki in data set [1] was found to be 150 µM; in data set [2], 800 µM.

For `CC(=O)[C@@H](O)[C@@H](O)COP(=O)(O)O`, the inhibitory constant (Ki) in data set [1] stood at 180 µM.

In turn, `CCC(=O)[C@@H](O)[C@H](O)COP(=O)(O)O` gave an inhibitory constant (Ki) in data set [1] of 630 µM.

Take `CC(=O)[C@@H](O)CCOP(=O)(O)O`: the Ki in data set [1] stood at 30 µM; in data set [2], 120 µM.

Take `NC(=O)[C@@H](O)[C@H](O)COP(=O)(O)O`: in data set [1], the inhibition constant Ki was determined as 90 µM.

B1: 1-deoxy-D-xylulose 5-phosphate reductoisomerase (Synechocystis sp. (strain PCC 6803 / Kazusa)), Q55663 (protein)
chain: T1 sequence (Q55663 whole entry)
By Km is commonly meant the substrate concentration at which the rate is half of its maximum. Regarding B1, the Km in data set [3] was 690 µM.
